Measured values taken from patent US20240101544A1, “INHIBITORS OF QPCTL AND QPCT” (priority 2022, published 2024).
pIC50: −log10 of the molar value.

Key:
[1] = molecular target: T1, QPCTL (Homo sapiens (Human), UniProt Q9NXS2); test: Inhibition of Cellular QPCTL Activity - Imaging Assay, CC2C6 anti-CD47 staining of DLD-1 cells; assay type: cell-based; conditions: 72 hours, CC2C6 anti-CD47 high-content imaging
Description: Inhibition of Cellular QPCTL Activity—Imaging Assay
The cells were incubated for 72 hours at 37° C. and 5% CO2. […] After primary antibody staining, the cells were fixed with 4% paraformaldehyde in the incubation buffer for 15 minutes at room temperature. […] Cells were analyzed on a ImageXpress Pico Automated Cell Imaging System (Molecular Devices) using 10× objective (3×3 fields).
Target sequence in this assay (Q9NXS2 whole entry): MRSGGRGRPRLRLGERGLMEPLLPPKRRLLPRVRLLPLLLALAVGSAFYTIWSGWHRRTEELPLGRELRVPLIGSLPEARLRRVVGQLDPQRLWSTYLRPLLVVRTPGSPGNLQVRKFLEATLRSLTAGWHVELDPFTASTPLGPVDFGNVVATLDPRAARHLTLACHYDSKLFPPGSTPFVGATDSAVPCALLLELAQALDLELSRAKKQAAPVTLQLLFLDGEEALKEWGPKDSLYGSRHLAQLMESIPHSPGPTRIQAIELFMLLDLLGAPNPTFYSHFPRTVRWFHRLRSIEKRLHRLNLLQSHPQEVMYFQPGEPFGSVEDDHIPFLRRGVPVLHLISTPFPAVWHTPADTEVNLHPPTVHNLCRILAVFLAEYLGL

[2] = molecular target: T1, QPCTL; test: QPCTL Enzymatic Activity Assay (coupled-enzyme fluorescent assay, H-Gln-AMC substrate); assay type: biochemical; conditions: recombinant truncated human QPCTL 10-12 nM, 10 μM H-Gln-AMC; read-out: QPCTL Inhibition IC50
Description: Protein expression was induced when the bacterial culture OD600 was approximately 0.7 using 1 mM IPTG and the cells incubated at 20° C. for approximately 16 hours. The QPCTL was purified using nickel column purification, digested by TEV, followed by a second nickel column purification. The protein was further purified by size-exclusion chromatography using a Superdex™ 75 column. The final protein was concentrated using ultrafiltration tubes at a molecular weight cutoff of 10 kilodaltons and stored frozen in protein buffer (25 mM Tris pH 8.3, 150 mM NaCl).
QPCTL activity was measured in a coupled-enzyme assay using the QPCTL substrate, glutamine-7-amido-4-methylcoumarin (H-Gln-AMC, Bachem), which is converted to pyroglutamyl-AMC by QPCTL. Pyroglutamyl-AMC is then converted to the fluorescent molecule, AMC, by incubation with the human enzyme pyroglutamyl peptidase-1. […] Final concentrations of DMSO and test compounds were 2% and 30-100 μM, respectively. Following the incubation, H-Gln-AMC substrate was diluted in assay buffer and added to each well for a final concentration of 10 μM. The reaction was incubated for 60 min at 37° C., before stopping it by boiling at 100° C. for 5 minutes and cooling the plate at 4° C. for 3 minutes. […] Following incubation, the fluorescence was measured with a plate reader using excitation at 380 nm and emission at 460 nm. […] Concentration-response-curves and IC50 values (Table 17) were generated using curve fit software.
Target sequence in this assay (Q9NXS2 53-382): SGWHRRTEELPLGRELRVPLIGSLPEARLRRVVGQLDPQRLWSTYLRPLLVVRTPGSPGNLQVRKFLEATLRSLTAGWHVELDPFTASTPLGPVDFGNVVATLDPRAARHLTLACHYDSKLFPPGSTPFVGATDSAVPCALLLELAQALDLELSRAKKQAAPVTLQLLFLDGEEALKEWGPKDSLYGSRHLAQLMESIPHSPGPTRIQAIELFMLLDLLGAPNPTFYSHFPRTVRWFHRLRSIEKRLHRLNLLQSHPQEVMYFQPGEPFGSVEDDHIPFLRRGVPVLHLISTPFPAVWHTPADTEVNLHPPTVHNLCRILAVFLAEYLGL

[3] = molecular target: QPCT (rhQPCT) (Homo sapiens (Human), UniProt Q16769); test: QPCT Enzymatic Activity Assay (coupled-enzyme fluorescent assay, H-Gln-AMC substrate); assay type: biochemical; conditions: rhQPCT 10-12 nM, 10 μM H-Gln-AMC; read-out: QPCT Inhibition IC50
Chain of QPCT (rhQPCT) (Q16769 29-361): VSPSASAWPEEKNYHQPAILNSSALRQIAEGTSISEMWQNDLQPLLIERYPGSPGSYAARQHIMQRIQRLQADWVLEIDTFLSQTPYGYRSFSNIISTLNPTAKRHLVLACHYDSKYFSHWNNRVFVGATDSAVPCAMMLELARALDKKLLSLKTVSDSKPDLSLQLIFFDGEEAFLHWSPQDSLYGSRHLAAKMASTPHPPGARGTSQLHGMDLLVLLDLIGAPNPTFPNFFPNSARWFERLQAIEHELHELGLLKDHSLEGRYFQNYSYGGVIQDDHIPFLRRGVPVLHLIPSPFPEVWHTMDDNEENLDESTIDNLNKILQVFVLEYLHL
Description: QPCT activity was measured in a coupled-enzyme assay using the QPCT substrate, glutamine-7-amido-4-methylcoumarin (H-Gln-AMC, Bachem), which is converted to pyroglutamyl-AMC by QPCT. Pyroglutamyl-AMC is then converted to the fluorescent molecule, AMC, by incubation with the human enzyme pyroglutamyl peptidase-1 (PGPEP-1). […] Following the incubation, H-Gln-AMC substrate was diluted in assay buffer and added to each well for a final concentration of 10 μM. The reaction was incubated for 60 min at 37° C., before stopping it by boiling at 100° C. for 5 minutes and cooling the plate at 4° C. for 3 minutes. […] Following incubation, the fluorescence was measured with a plate reader using excitation at 380 nm and emission at 460 nm. […] Concentration-response-curves and IC50 values (Table 17) were generated using Collaborative Drug Discovery software.

Compound | pIC50 [1] | pIC50 [2] | pIC50 [3]
Cn1cnnc1C1CCN(c2c(-c3ccc(F)nc3)ccc(NS(C)(=O)=O)c2C#N)CC1 [Example 84, N-(2-cyano-4-(6-fluoropyridin-3-yl)-3-(4-(4-methyl-4H-1,2,4-triazol-3-yl)piperidin-1-yl)phenyl)methanesulfonamide] | < 5.00 | > 7.00 | > 7.00
Cn1cnnc1C1CCN(c2c(-c3ccc(F)nc3)ccc(-c3cc[nH]n3)c2C#N)CC1 [Example 45, 3-(6-fluoropyridin-3-yl)-2-(4-(4-methyl-4H-1,2,4-triazol-3-yl)piperidin-1-yl)-6-(1H-pyrazol-3-yl)benzonitrile] | > 7.00 | > 7.00 | > 7.00
Cn1cnnc1C1CCN(c2c(C#N)ccnc2-c2ccc(F)nc2)CC1 [Example 133, 6′-fluoro-3-(4-(4-methyl-4H-1,2,4-triazol-3-yl)piperidin-1-yl)-[2,3′-bipyridine]-4-carbonitrile] | > 7.00 | > 7.00 | > 7.00
Cc1cc(-c2ccc(-c3cnn(C)c3)c(C#N)c2N2CCC(c3nncn3C)CC2)cnn1 [Example 48, 6-(1-methyl-1H-pyrazol-4-yl)-2-(4-(4-methyl-4H-1,2,4-triazol-3-yl)piperidin-1-yl)-3-(6-methylpyridazin-4-yl)benzonitrile] | > 7.00 | > 7.00 | > 7.00
Cn1cnnc1C1CCN(c2c(-c3ccc(F)nc3)ccc(N3CCOCC3)c2C#N)CC1 [Example 87, 3-(6-fluoropyridin-3-yl)-2-(4-(4-methyl-4H-1,2,4-triazol-3-yl)piperidin-1-yl)-6-morpholinobenzonitrile] | > 7.00 | > 7.00 | > 7.00
Cn1cnnc1C1CCN(c2c(C#N)cccc2-c2ccc(O)c(C=O)c2)CC1 [Example 109, 3′-formyl-4′-hydroxy-2-(4-(4-methyl-4H-1,2,4-triazol-3-yl)piperidin-1-yl)-[1,1′-biphenyl]-3-carbonitrile] | > 7.00 | > 7.00 | > 7.00
Cn1cnnc1C1CCN(c2c(-c3ccc(F)nc3)ccc(N3CC(O)C3)c2C#N)CC1 [Example 95, 3-(6-fluoropyridin-3-yl)-6-(3-hydroxyazetidin-1-yl)-2-(4-(4-methyl-4H-1,2,4-triazol-3-yl)piperidin-1-yl)benzonitrile] | > 7.00 | > 7.00 | > 7.00
CN(C)C(=O)c1ccc(-c2ccc(F)nc2)c(N2CCC(c3nncn3C)CC2)c1C#N [Example 79, 2-cyano-4-(6-fluoropyridin-3-yl)-N,N-dimethyl-3-(4-(4-methyl-4H-1,2,4-triazol-3-yl)piperidin-1-yl)benzamide] | 6.00 to 7.00 | > 7.00 | > 7.00
Cn1cnnc1C1CCN(c2c(-c3ccc(F)nc3)cc3cn[nH]c3c2C#N)CC1 [Example 105, 5-(6-fluoropyridin-3-yl)-6-(4-(4-methyl-4H-1,2,4-triazol-3-yl)piperidin-1-yl)-1H-indazole-7-carbonitrile] | 6.00 to 7.00 | > 7.00 | > 7.00
Cn1cnnc1C1CCN(c2c(C#N)cccc2-c2cncc(O)c2)CC1 [Example 120, 3-(5-hydroxypyridin-3-yl)-2-(4-(4-methyl-4H-1,2,4-triazol-3-yl)piperidin-1-yl)benzonitrile] | > 7.00 | > 7.00 | > 7.00
Cn1cnnc1C1CCN(c2c(C#N)cc(Cl)cc2-c2ccc(F)nc2)CC1 [Example 69, 5-chloro-3-(6-fluoropyridin-3-yl)-2-(4-(4-methyl-4H-1,2,4-triazol-3-yl)piperidin-1-yl)benzonitrile] | > 7.00 | > 7.00 | > 7.00
Cn1cnnc1C1CCN(c2c(-c3ccc(F)nc3)ccc(-c3cnn4c3OCCC4)c2C#N)CC1 [Example 64, 6-(6,7-dihydro-5H-pyrazolo[5,1-b][1,3]oxazin-3-yl)-3-(6-fluoropyridin-3-yl)-2-(4-(4-methyl-4H-1,2,4-triazol-3-yl)piperidin-1-yl)benzonitrile] | > 7.00 | > 7.00 | > 7.00
Cc1cc(-c2ccc(-c3cc[nH]n3)c(C#N)c2N2CCC(c3nncn3C)CC2)cnn1 [Example 65, 2-(4-(4-methyl-4H-1,2,4-triazol-3-yl)piperidin-1-yl)-3-(6-methylpyridazin-4-yl)-6-(1H-pyrazol-3-yl)benzonitrile] | < 5.00 | > 7.00 | > 7.00
Cn1cnnc1C1CCN(c2c(-c3ccc(F)nc3)ccc(C3CC3)c2C#N)CC1 [Example 68, 6-cyclopropyl-3-(6-fluoropyridin-3-yl)-2-(4-(4-methyl-4H-1,2,4-triazol-3-yl)piperidin-1-yl)benzonitrile] | > 7.00 | > 7.00 | > 7.00
CN(C)CCn1cc(-c2ccc(-c3ccc(F)nc3)c(N3CCC(c4nncn4C)CC3)c2C#N)cn1 [Example 60, 6-(1-(2-(dimethylamino)ethyl)-1H-pyrazol-4-yl)-3-(6-fluoropyridin-3-yl)-2-(4-(4-methyl-4H-1,2,4-triazol-3-yl)piperidin-1-yl)benzonitrile] | > 7.00 | > 7.00 | > 7.00
Cn1cnnc1C1CCN(c2c(-c3ccc(F)nc3)ccc(N3CCNCC3)c2C#N)CC1 [Example 85, 3-(6-fluoropyridin-3-yl)-2-(4-(4-methyl-4H-1,2,4-triazol-3-yl)piperidin-1-yl)-6-(piperazin-1-yl)benzonitrile] | 5.00 to 6.00 | > 7.00 | > 7.00
Cn1cnnc1N1CCN(c2c(C#N)cccc2-c2ccc(F)nc2)CC1 [Example 106, 3-(6-fluoropyridin-3-yl)-2-(4-(4-methyl-4H-1,2,4-triazol-3-yl)piperazin-1-yl)benzonitrile] | > 7.00 | > 7.00 | > 7.00
Cc1cc(-c2cccc(C#N)c2N2CCC(c3nncn3C)CC2)cnn1 [Example 46, 2-(4-(4-methyl-4H-1,2,4-triazol-3-yl)piperidin-1-yl)-3-(6-methylpyridazin-4-yl)benzonitrile] | 6.00 to 7.00 | > 7.00 | > 7.00
Cc1cc(C#N)c(N2CCC(c3nncn3C)CC2)c(-c2ccc(F)nc2)c1 [Example 66, 3-(6-fluoropyridin-3-yl)-5-methyl-2-(4-(4-methyl-4H-1,2,4-triazol-3-yl)piperidin-1-yl)benzonitrile] | > 7.00 | > 7.00 | > 7.00
Cn1cnnc1C1CCN(c2c(-c3ccc(F)nc3)ccc(NC3CC3)c2C#N)CC1 [Example 81, 6-(cyclopropylamino)-3-(6-fluoropyridin-3-yl)-2-(4-(4-methyl-4H-1,2,4-triazol-3-yl)piperidin-1-yl)benzonitrile] | > 7.00 | > 7.00 | > 7.00
COCCOc1ccc(-c2ccc(F)nc2)c(N2CCC(c3nncn3C)CC2)c1C#N [Example 86, 3-(6-fluoropyridin-3-yl)-6-(2-methoxyethoxy)-2-(4-(4-methyl-4H-1,2,4-triazol-3-yl)piperidin-1-yl)benzonitrile] | > 7.00 | > 7.00 | > 7.00
Cn1cnnc1C1CCN(c2c(-c3ccc(F)nc3)ccc(OCC3CC3)c2C#N)CC1 [Example 77, 6-(cyclopropylmethoxy)-3-(6-fluoropyridin-3-yl)-2-(4-(4-methyl-4H-1,2,4-triazol-3-yl)piperidin-1-yl)benzonitrile] | > 7.00 | > 7.00 | > 7.00
Cn1cnnc1C1CCN(c2c(-c3ccc(F)nc3)ccc(-c3c[nH]nc3N)c2C#N)CC1 [Example 92, 6-(3-amino-1H-pyrazol-4-yl)-3-(6-fluoropyridin-3-yl)-2-(4-(4-methyl-4H-1,2,4-triazol-3-yl)piperidin-1-yl)benzonitrile] | 6.00 to 7.00 | > 7.00 | > 7.00
CN(C)CCNc1ccc(-c2ccc(F)nc2)c(N2CCC(c3nncn3C)CC2)c1C#N [Example 51, 6-((2-(dimethylamino)ethyl)amino)-3-(6-fluoropyridin-3-yl)-2-(4-(4-methyl-4H-1,2,4-triazol-3-yl)piperidin-1-yl)benzonitrile] | 6.00 to 7.00 | > 7.00 | > 7.00
